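These data come from cells grown in 96-well plates and exposed to compound for 48 hours at five concentrations. GI50 = concentration required for 50% inhibition of growth.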 Activity calls are given as the source filed them. No stated cut-off is given here; in the data, active = GI50 up to about 1.1 µM and inactive = higher.
Assays:
Experiment in all cases: growth of human tumour cells (NCI), 48 h
SK-MEL-28 = system: SK-MEL-28
DLD-1 = system: DLD-1
SN12C = system: SN12C
XF498 = system: XF498
HCT-15 = system: HCT-15
SF-295 = system: SF-295
DMS-114 = system: DMS-114
SF-268 = system: SF-268
OVCAR-8 = system: OVCAR-8
SK-OV-3 = system: SK-OV-3
COLO 205 = system: COLO 205
UACC-62 = system: UACC-62
OVCAR-5 = system: OVCAR-5
HT-29 = system: HT-29
OVCAR-3 = system: OVCAR-3
HCT-116 = system: HCT-116
NCI-H23 = system: NCI-H23
SK-MEL-2 = system: SK-MEL-2
A498 = system: A498
KM-20L2 = system: KM-20L2
RPMI-8226 = system: RPMI-8226
HOP-62 = system: HOP-62
MOLT-4 = system: MOLT-4
Malme-3M = system: Malme-3M
U-251 = system: U-251
KM12 = system: KM12
HCC 2998 = system: HCC 2998
NCI-H460 = system: NCI-H460
SNB-75 = system: SNB-75
M14 = system: M14
LXFL 529 = system: LXFL 529
CCRF-CEM = system: CCRF-CEM
A549 = system: A549
NCI-H522 = system: NCI-H522
UO-31 = system: UO-31
HL-60 = system: HL-60
K562 = system: K562
TK-10 = system: TK-10
HOP-92 = system: HOP-92
ACHN = system: ACHN
SW-620 = system: SW-620
DMS-273 = system: DMS-273
IGROV-1 = system: IGROV-1
CAKI-1 = system: CAKI-1
SF-539 = system: SF-539
UACC-257 = system: UACC-257
EKVX = system: EKVX
SK-MEL-5 = system: SK-MEL-5
M19-MEL = system: M19-MEL
RXF 393 = system: RXF 393
OVCAR-4 = system: OVCAR-4
SNB-19 = system: SNB-19
LOX IMVI = system: LOX IMVI
SR = system: SR
NCI-H226 = system: NCI-H226
SNB-78 = system: SNB-78
786-0 = system: 786-0

CCNc1cnc2c(n1)c(=O)n(C)c(=O)n2C
GI50 (SK-MEL-28): > 100 µM (inactive)
GI50 (DLD-1): > 100 µM (inactive)
GI50 (SN12C): > 100 µM (inactive)
GI50 (XF498): > 100 µM (inactive)
GI50 (HCT-15): > 100 µM
GI50 (SF-295): > 100 µM (inactive)
GI50 (DMS-114): > 100 µM (inactive)
GI50 (SF-268): > 100 µM (inactive)
GI50 (OVCAR-8): > 100 µM (inactive)
GI50 (SK-OV-3): > 100 µM (inactive)
GI50 (COLO 205): > 100 µM (inactive)
GI50 (UACC-62): > 100 µM (inactive)
GI50 (OVCAR-5): > 100 µM (inactive)
GI50 (HT-29): > 100 µM (inactive)
GI50 (OVCAR-3): > 100 µM (inactive)
GI50 (HCT-116): > 100 µM (inactive)
GI50 (NCI-H23): > 100 µM (inactive)
GI50 (SK-MEL-2): > 100 µM (inactive)
GI50 (A498): > 100 µM (inactive)
GI50 (KM-20L2): > 100 µM (inactive)
GI50 (RPMI-8226): > 100 µM (inactive)
GI50 (HOP-62): > 100 µM (inactive)
GI50 (MOLT-4): > 100 µM (inactive)
GI50 (Malme-3M): > 100 µM (inactive)
GI50 (U-251): > 100 µM (inactive)
GI50 (KM12): > 100 µM (inactive)
GI50 (HCC 2998): > 100 µM (inactive)
GI50 (NCI-H460): > 100 µM (inactive)
GI50 (SNB-75): 48.9 µM (inactive)
GI50 (M14): > 100 µM (inactive)
GI50 (LXFL 529): > 100 µM (inactive)
GI50 (CCRF-CEM): > 100 µM (inactive)
GI50 (A549): > 100 µM (inactive)
GI50 (NCI-H522): > 100 µM (inactive)
GI50 (UO-31): > 100 µM (inactive)
GI50 (HL-60): > 100 µM (inactive)
GI50 (K562): > 100 µM (inactive)
GI50 (TK-10): > 100 µM (inactive)
GI50 (HOP-92): > 100 µM (inactive)
GI50 (ACHN): > 100 µM (inactive)
GI50 (SW-620): > 100 µM (inactive)
GI50 (DMS-273): > 100 µM (inactive)
GI50 (IGROV-1): > 100 µM (inactive)
GI50 (CAKI-1): > 100 µM (inactive)
GI50 (SF-539): > 100 µM (inactive)
GI50 (UACC-257): > 100 µM (inactive)
GI50 (EKVX): 34.1 µM (inactive)
GI50 (SK-MEL-5): > 100 µM (inactive)
GI50 (M19-MEL): > 100 µM (inactive)
GI50 (RXF 393): 84.9 µM (inactive)
GI50 (OVCAR-4): > 100 µM (inactive)
GI50 (SNB-19): > 100 µM (inactive)

CCC(C)Cn1c(C)nc2c1C(=O)c1ccccc1C2=O (centres undefined)
GI50 (SK-MEL-28): 37.2 µM (inactive)
GI50 (DLD-1): 24.6 µM (inactive)
GI50 (SN12C): 36.1 µM (inactive)
GI50 (XF498): 22.5 µM (inactive)
GI50 (HCT-15): 17.5 µM
GI50 (SF-295): 38.8 µM (inactive)
GI50 (LOX IMVI): 19.4 µM (inactive)
GI50 (SR): 2.81 µM (inactive)
GI50 (SF-268): 23.9 µM (inactive)
GI50 (OVCAR-8): 32.9 µM (inactive)
GI50 (NCI-H226): > 100 µM (inactive)
GI50 (SK-OV-3): 54.3 µM (inactive)
GI50 (COLO 205): 19.8 µM (inactive)
GI50 (UACC-62): 9.98 µM (inactive)
GI50 (HT-29): 28.2 µM (inactive)
GI50 (SNB-78): 34.4 µM (inactive)
GI50 (OVCAR-3): 23.3 µM (inactive)
GI50 (HCT-116): > 10 µM (inactive)
GI50 (NCI-H23): 20.7 µM (inactive)
GI50 (SK-MEL-2): 33.1 µM (inactive)
GI50 (786-0): 23.1 µM (inactive)
GI50 (KM-20L2): 31.2 µM (inactive)
GI50 (HOP-62): 23.8 µM (inactive)
GI50 (MOLT-4): 2.91 µM (inactive)
GI50 (Malme-3M): 27.7 µM (inactive)
GI50 (U-251): 20.5 µM (inactive)
GI50 (KM12): 27.9 µM (inactive)
GI50 (HCC 2998): 47.4 µM (inactive)
GI50 (NCI-H460): 14.8 µM (inactive)
GI50 (SNB-75): 28.6 µM (inactive)
GI50 (M14): 42.3 µM (inactive)
GI50 (LXFL 529): 17 µM (inactive)
GI50 (CCRF-CEM): 21.4 µM (inactive)
GI50 (A549): 31.5 µM (inactive)
GI50 (NCI-H522): 30 µM (inactive)
GI50 (UO-31): 24.5 µM (inactive)
GI50 (HL-60): 5.06 µM (inactive)
GI50 (K562): 5.42 µM (inactive)
GI50 (TK-10): 41.4 µM (inactive)
GI50 (HOP-92): 20.4 µM (inactive)
GI50 (ACHN): 36.1 µM (inactive)
GI50 (SW-620): 38.7 µM (inactive)
GI50 (DMS-273): 9.86 µM (inactive)
GI50 (IGROV-1): 42.5 µM (inactive)
GI50 (SF-539): 17.7 µM (inactive)
GI50 (UACC-257): 23.5 µM (inactive)
GI50 (EKVX): 31.9 µM (inactive)
GI50 (SK-MEL-5): 15 µM (inactive)
GI50 (M19-MEL): 18.1 µM (inactive)
GI50 (RXF 393): 33.9 µM (inactive)
GI50 (OVCAR-4): 38 µM (inactive)
GI50 (SNB-19): 53.6 µM (inactive)

From ChEMBL document CHEMBL1201862, “PubChem BioAssay data set” (2004)
